Like-named read-outs stand apart in the source and are kept apart here.

The target in assay [1] is T1, Human recombinant DHX9 protein (Homo sapiens, UniProt Q08211).
T1 construct: purchased Viva
Kind of assay: DHX9 ATPase assay (ADP-Glo). The assay is classed as biochemical. Particulars: for IC50: read-out: DHX9 Biochemical Inflection Point.

Another assay has as its system LS411N cells. Description: DHX9 cellular proliferation assay (CellTiter-Glo), LS411N (CRC-MSI). The assay is classed as cell-based. Particulars: LS411N, performed at Pharmaron, read-out: LS411N (CRC-MSI-H) Antiproliferative IC50.
The subject of assay [2] is circBRIP1 in HCT116 cells. Description: DHX9 circBRIP1 cellular target engagement TaqMan Multiplex assay (qPCR). The assay is classed as cell-based. Particulars: * Taqman assay was used, read-out: DHX9 Cellular Target Engagement EC50.
The subject of a further assay is NCI-H747 cells. Kind of assay: DHX9 cellular proliferation assay (CellTiter-Glo), NCI-H747 (CRC-MSS). Particulars: performed at Pharmaron, read-out: H747 (CRC-MSS) Antiproliferative IC50. The assay is classed as cell-based.
For assay [3], the system named is circBRIP1 in HCT116 cells. Kind of assay: DHX9 circBRIP1 cellular target engagement SYBR Green assay (qPCR). Particulars: Homo sapiens, HCT-116, circBRIP1, HCT116 cells; SyBr assay (marked ^+); read-out: DHX9 Cellular Target Engagement EC50. The assay is classed as cell-based.
Setting [4] is: Homo sapiens, HCT-116, circBRIP1, HCT116 cells.
Where [5] appears, read: Homo sapiens, NCI-H747, NCI-H747.

T1 sequence (Q08211 whole entry): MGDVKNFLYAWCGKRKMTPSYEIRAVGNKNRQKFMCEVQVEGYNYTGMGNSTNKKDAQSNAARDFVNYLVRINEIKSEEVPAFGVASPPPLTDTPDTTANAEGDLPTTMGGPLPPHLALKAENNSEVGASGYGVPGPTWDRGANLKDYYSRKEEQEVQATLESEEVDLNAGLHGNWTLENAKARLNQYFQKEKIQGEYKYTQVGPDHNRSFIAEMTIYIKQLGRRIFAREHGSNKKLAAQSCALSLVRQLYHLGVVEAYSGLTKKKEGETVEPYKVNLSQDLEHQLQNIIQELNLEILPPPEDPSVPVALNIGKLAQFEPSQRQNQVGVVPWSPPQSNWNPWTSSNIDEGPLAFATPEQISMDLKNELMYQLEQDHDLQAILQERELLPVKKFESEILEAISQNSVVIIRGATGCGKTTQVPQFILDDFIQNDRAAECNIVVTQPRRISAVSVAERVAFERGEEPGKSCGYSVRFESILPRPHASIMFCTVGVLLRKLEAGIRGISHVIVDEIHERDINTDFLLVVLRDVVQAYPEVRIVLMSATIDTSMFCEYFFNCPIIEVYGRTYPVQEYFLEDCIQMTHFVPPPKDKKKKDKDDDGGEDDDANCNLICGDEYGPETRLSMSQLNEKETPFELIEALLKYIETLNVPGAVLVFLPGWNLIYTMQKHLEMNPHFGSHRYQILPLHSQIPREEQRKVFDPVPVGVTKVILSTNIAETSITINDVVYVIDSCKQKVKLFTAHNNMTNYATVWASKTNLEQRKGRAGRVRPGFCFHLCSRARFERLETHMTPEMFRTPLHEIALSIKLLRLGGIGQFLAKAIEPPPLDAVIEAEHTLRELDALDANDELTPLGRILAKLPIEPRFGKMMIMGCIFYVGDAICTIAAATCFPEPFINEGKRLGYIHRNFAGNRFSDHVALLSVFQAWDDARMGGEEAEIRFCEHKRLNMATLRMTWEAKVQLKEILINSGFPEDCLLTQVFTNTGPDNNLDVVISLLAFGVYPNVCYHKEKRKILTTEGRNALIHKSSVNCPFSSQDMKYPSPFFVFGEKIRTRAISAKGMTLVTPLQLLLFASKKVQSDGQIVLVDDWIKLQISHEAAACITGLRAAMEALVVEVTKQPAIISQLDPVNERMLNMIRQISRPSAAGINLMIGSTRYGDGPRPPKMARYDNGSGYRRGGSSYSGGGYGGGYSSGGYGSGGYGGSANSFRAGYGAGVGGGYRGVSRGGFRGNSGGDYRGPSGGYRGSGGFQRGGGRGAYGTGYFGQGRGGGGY

With `Cc1sc(C(=O)Nc2cc(Cl)cc(NS(C)(=O)=O)c2)cc1-c1ncccc1OC(C)c1cc(F)cc(F)c1` (single isomer, unassigned) [Example 632], the “DHX9 Biochemical Max Inhibition (%)” value in assay [1] is reported as 71.5%. In addition, the IC50 was 96.8 nM in the assay with LS411N cells (Homo sapiens, LS-411N) and more than 10000 nM in the assay with NCI-H747 cells (setting [5]). For the same compound, the EC50 in assay [2] (setting [4]) was determined as 112 nM.

As for `Cn1cc(C(=O)Nc2cc(Cl)cc(NS(C)(=O)=O)c2)cc1-c1ncc(F)cc1CCc1cncc(F)c1` [Example 728], in assay [1], the “DHX9 Biochemical Max Inhibition (%)” value turned out to be 62.5%. Further, the EC50 in assay [2] (circBRIP1, HCT116 cells) was determined as 1350 nM.

With `CN1CC(Oc2ccc(-c3cc(C(=O)Nc4cc(Cl)cc(NS(C)(=O)=O)c4)cn3C)nc2)C1` [Example 612, N-(3-chloro-5-methanesulfonamidophenyl)-1-methyl-5-{5-[(1-methylazetidin-3-yl)oxy]pyridin-2-yl}pyrrole-3-carboxamide], the “DHX9 Biochemical Max Inhibition (%)” value in assay [1] is 70%. The IC50 in assay [1] is 10.1 nM; in the assay with LS411N cells (Homo sapiens, LS-411N), 281 nM; with NCI-H747 cells (setting [5]) it was more than 10000 nM. Moreover, the concentration giving a half-maximal response (EC50) in assay [2] (setting [4]) came to 21.2 nM.

As to `CCS(=O)(=O)Nc1cc(Cl)cc(NC(=O)c2cc(-c3ncc(N4CC(F)(F)C4)cc3F)n(C)c2)c1` [Example 517], the “DHX9 Biochemical Max Inhibition (%)” value in assay [1] is given as 54.1%. Moreover, the IC50 in the assay with LS411N cells amounted to 135 nM; with NCI-H747 cells (NCI-H747) it was 2220 nM. For the same compound, the EC50 in assay [2] (circBRIP1, HCT116 cells) came out at 16.8 nM.

As for `Cc1sc(C(=O)Nc2cc(Cl)cc(NS(C)(=O)=O)c2)cc1-c1ncc(N2CCC3(C2)CC3(F)F)cn1` (stereo not drawn) [Example 491], the “DHX9 Biochemical Max Inhibition (%)” value in assay [1] was 72%. Also, the IC50 in the assay on LS411N cells (Homo sapiens, LS-411N) amounted to 59.1 nM; with NCI-H747 cells (setting [5]), 2160 nM. The EC50 in assay [2] (setting [4]) was determined as 20.7 nM.

On to `Cc1sc(C(=O)Nc2cc(Cl)cc(NS(C)(=O)=O)c2)cc1-c1ncccc1-c1cncc(F)c1` [Example 229], for which the “DHX9 Biochemical Max Inhibition” value in assay [1] was found to be 72.5%. The IC50 is 9.6 nM in assay [1] (inflection point of dose-response curve); 51 nM in the assay with LS411N cells (Homo sapiens, LS-411N, CRC-MSI-H); more than 10000 nM in the assay with NCI-H747 cells (Homo sapiens, NCI-H747, NCI-H747, CRC-MSS). For the same compound, the EC50 in assay [3] came to 78.1 nM.
